Earlier results, collected in patent publication US20250275935A1, “COMPOSITIONS AND METHODS FOR TREATING PATIENTS WITH DEMENTIA DUE TO ALZHEIMER'S DISEASE WITH A COMBINATION OF THC AND MELATONIN” (IGC Pharma IP, LLC, priority 2021, published 2025).

Key:
[1] = general statement, no test described
mice = settings: THC 3 mg/kg bodyweight per day, four weeks
[2] = 4.5 mg/day THC
[3] = test system: patient having severe Alzheimer's disease; settings: 4.9-6.7 mg dronabinol with 10 mg donepezil and 50 mg sertraline daily; decreased from 20

COc1ccc2[nH]cc(CCNC(C)=O)c2c1 [Melatonin, N-acetyl-5-methoxytryptamine]
solubility in water [1]: typically insoluble in water

CCCCCc1cc(O)c2c(c1)OC(C)(C)[C@@H]1CCC(C)=C[C@@H]21 [THC, Tetrahydrocannabinol]
cognitive performance (learning and memory) (mice; mature (12 months) and old (18 months) mice): cognitive deficits in learning and memory were erased | cognitive performance (mice; young mice (2 month)): performed worse than the control group of young mice | agitation or reduction from baseline of NPI total score versus placebo [2]: No differences were shown

COc1cc(/C=C/C(=O)CC(=O)/C=C/c2ccc(O)c(OC)c2)ccc1O [curcumin]
solubility in water [1]: only poorly soluble in water

CCCCCc1cc(O)c2c(c1)OC(C)(C)[C@@H]1CCC(C)=C[C@@H]21 [dronabinol]
NPI total score [3]: 15

C[C@@H]1O[C@@H](OC[C@H]2O[C@@H](Oc3c(-c4ccc(O)c(O)c4)oc4cc(O)cc(O)c4c3=O)[C@H](O)[C@@H](O)[C@@H]2O)[C@H](O)[C@H](O)[C@H]1O [rutin]
solubility in water [1]: only poorly soluble in water
